Experimental data taken from ChEMBL document CHEMBL3588748, “Original 2-(3-Alkoxy-1H-pyrazol-1-yl)azines Inhibitors of Human Dihydroorotate Dehydrogenase (DHODH)” (J Med Chem, 2015).
In brackets after ≈: the same amount, converted by molar mass. Activity calls are given as the source filed them.

Experiments:
Plasmodium falciparum [1] = test: Antiplasmodial activity against Plasmodium falciparum 3D7 assessed as inhibition of parasite growth at 8.66 ug/ml by SYBR Green I dye based assay; format: functional, organism-based
[2] = Half life in human microsomes; format: ADME, Microsome
Measles morbillivirus [3] = tested on: Measles morbillivirus
Description: (§1) Antiviral activity against measles virus rMV2/Luc infected in HEK-293T cells assessed as inhibition of virus growth incubated for 24 hrs by firefly luciferase reporter gene assay

Plasmodium falciparum [4] = test: Antiplasmodial activity against Plasmodium falciparum 3D7 assessed as inhibition of parasite growth by SYBR Green I dye based assay; format: functional, organism-based
[5] = molecular target: T1, Dihydroorotate dehydrogenase (quinone), mitochondrial (Plasmodium falciparum (isolate 3D7)) (UniProt Q08210); test: Inhibition of Plasmodium falciparum DHODH expressed in Escherichia coli by […]-based spectrophotometric method
T1 sequence (whole entry): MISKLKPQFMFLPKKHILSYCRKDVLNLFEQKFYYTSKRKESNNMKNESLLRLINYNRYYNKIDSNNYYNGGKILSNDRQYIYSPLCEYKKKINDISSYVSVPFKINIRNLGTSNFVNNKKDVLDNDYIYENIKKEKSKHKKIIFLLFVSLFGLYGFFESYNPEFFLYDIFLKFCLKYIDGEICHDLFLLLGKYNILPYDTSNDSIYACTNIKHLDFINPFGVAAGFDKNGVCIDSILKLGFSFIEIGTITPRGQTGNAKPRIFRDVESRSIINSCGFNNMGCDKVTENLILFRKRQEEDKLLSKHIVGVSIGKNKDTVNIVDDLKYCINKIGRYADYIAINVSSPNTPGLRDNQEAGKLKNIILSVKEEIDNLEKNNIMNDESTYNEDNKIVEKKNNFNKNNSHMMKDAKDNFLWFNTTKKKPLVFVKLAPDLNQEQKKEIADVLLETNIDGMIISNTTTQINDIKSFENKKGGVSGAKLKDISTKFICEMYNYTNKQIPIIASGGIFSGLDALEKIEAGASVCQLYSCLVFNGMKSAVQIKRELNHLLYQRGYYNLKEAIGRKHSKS

Jurkat = test: Inhibition of cell proliferation of human Jurkat cells incubated for 72 hrs by Celltiter-Glo assay; format: functional, cell-based
Measles morbillivirus [6] = test: microbe, parasite or virus in culture; conditions: rMV2/Luc, 24 h
Description: as §1

| Structure (SMILES) | growth inhibition (GI) (Plasmodium falciparum [1]) | t1/2 [2] [min] | pMIC50 (Measles morbillivirus [3]) | IC50 (Plasmodium falciparum [4]) [nM] | inhibition [5] | IC50 (Jurkat) [nM] | MIC50 (Measles morbillivirus [6]) [µM] |
| --- | --- | --- | --- | --- | --- | --- | --- |
| Cc1c(Oc2c(F)cccc2F)c(OC(C)C)nn1-c1ncc(Br)cc1F | inactive | 60 | 6.9 |  |  |  |  |
| Cc1c(Oc2c(F)cccc2F)c(OC(C)C)nn1-c1ncc(C2CC2)cc1O | inactive | 38 | 8.1 |  |  |  |  |
| Cc1c(Oc2c(F)cccc2F)c(OC(C)C)nn1-c1ccc(C2CC2)nn1 |  |  |  | 330 | inactive |  |  |
| Cc1c(Oc2c(F)cccc2F)c(OC(C)C)nn1-c1ccc(C2CC2)cn1 | inactive | 6 | 9 |  |  |  |  |
| Cc1c(Oc2ccccc2F)c(OC(C)C)nn1-c1ccc(C2CC2)cn1 | inactive | 4 | 7.4 |  |  |  |  |
| C/C(O)=C(\C#N)C(=O)Nc1ccc(C(F)(F)F)cc1 [TERIFLUNOMIDE] | inactive |  |  |  |  | 60000 | 5 (≈ 1.35 µg/mL) |
| Cc1ccc(-n2nc(OC(C)C)c(Oc3c(F)cccc3F)c2C)nn1 |  |  |  | 470 | inactive |  |  |
| COc1ccc(-n2nc(OC(C)C)c(Oc3c(F)cccc3F)c2C)nn1 | inactive | 22 | 7.1 |  |  |  |  |
| CCOc1nn(-c2ncc(C3CC3)cc2F)c(C)c1Cc1ccccc1 | inactive |  | 7 |  |  |  |  |
| Cc1c(Oc2c(F)cccc2F)c(OC(C)C)nn1-c1ncc(C2CC2)cc1N(C)C | inactive |  | 7.5 |  |  |  |  |
| CC(=O)c1ccc(-n2nc(OC(C)C)c(Oc3c(F)cccc3F)c2C)nc1 | inactive |  | 6.6 |  |  |  |  |
